From patent publication US11884649B2, “IRE1α inhibitors and uses thereof” (The Regents of the University of California, priority 2020, dated 2024)

How the values were obtained:
[1] = test system: RIDD (IRE1α-dependent mRNA decay); experiment: Real-time PCR of RIDD mRNA targets in INS-1 cells overexpressing IRE1α (Dox); assay type: cell-based, rat; settings: 3, 10 μM for 1 hour, then Dox (5 ng/mL) for 24 hours
Method: (§1) RNA Isolation, Quantitative Real-Time PCR, and Primers
(§2) INS-1 or isogenic IRE1α-overexpressing INS-1 cells were plated onto Poly-D-Lysine coated tissue culture plate and grown for 48 hrs. Inhibitors or DMSO were added to the media and incubated for 1 hour at 37° C. with 5% CO2 prior to addition of ER stress agents or Dox as indicated. RNA was isolated from whole cells using either QIAGEN RNeasy Mini kits or Trizol (Invitrogen) and reverse transcribed as above to obtain total cDNA. Then, XBP-1 primers were used to amplify an XBP-1 amplicon spanning the 26 nt intron from the cDNA samples in a regular 3-step PCR. Thermal cycles were: 5 min at 95° C., 30 cycles of 30 s at 95° C., 30 s at 60° C., and 1 min at 72° C., followed by 72° C. for 15 min, and hold at 4° C. Primers used for XBP-1 mRNA splicing were as follows: sense primer XBP1.3 S (5′ […]-3′ (SEQ ID NO:2)) and antisense primer XBP1.2AS (5′-[…]-3′ (SEQ ID NO:3)). PCR fragments were then digested by PstI, resolved on 3% agarose gels, stained with EtBr and quantified by densitometry using ImageJ (NIH). For standard mRNA detection, generally […] total RNA was reverse transcribed using the QuantiTect Reverse Transcription Kit (QIAGEN). For qPCR, we used SYBR green (QIAGEN) and StepOnePlus Real-Time PCR System (Applied Biosystems). Thermal cycles were: 5 min at 95° C., 40 cycles of 15 sec at 95° C., 30 sec at 60° C. Gene expression levels were normalized to Beta Actin. Primers used for qPCR of RIDD targets were as follows: Beta Actin Fwd: 5′-[…]-3′ (SEQ ID NO:4), Beta Actin Rev: 5′-[…]-3′ (SEQ ID NO:5), Insulin 1 Fwd: 5′-GTCCTCTGGGAGCCCAAG-3′ (SEQ ID NO:6), Insulin 1 Rev: 5′-ACAGAGCCTCCACCAGG-3′ (SEQ ID NO:7), Insulin 2 Fwd: 5′-ATCCTCTGGGAGCCCCGC-3′ (SEQ ID NO:8), Insulin 2 Rev: 5′-AGAGAGCTTCCACCAAG-3′ (SEQ ID NO:9), Blos1 Fwd: 5′-[…]-3′ (SEQ ID NO:10), and Blos1 Rev: 5′-[…]-3′ (SEQ ID NO:11).
Real-Time PCR (Q-PCR) used SYBR green and Step OnePlus Real-Time PCR System (Applied Biosystems). Thermal cycles were: 5 min at 95° C., 40 cycles of 15 s at 95° C., 30 s at 60° C. Gene expression levels were normalized to GAPDH. Q-PCR Sense/antisense primers used: Rat GAPDH, 5′-[…]-3′ (SEQ ID NO:14) and 5′-[…]-3′ (SEQ ID NO:15); Rat Ins1, 5′-GTCCTCTGGGAGCCCAAG-3′ (SEQ ID NO:6) and 5′-ACAGAGCCTCCACCAGG-3′ (SEQ ID NO:7); Rat Pdia4, 5′-CGTCTCGCCCTGATTCGT-3′ (SEQ ID NO:16) and 5′-[…]-3′ (SEQ ID NO:17); Rat Blos1, 5′-[…]-3′ (SEQ ID NO:18) and 5′-TGTCCAGTTCGATGCTCCG-3′ (SEQ ID NO:19).
Real-time PCR for FIGS. 34A-34F: Real-Time PCR (Q-PCR) used SYBR green and Step OnePlus Real-Time PCR System (Applied Biosystems). Thermal cycles were: 5 min at 95° C., 40 cycles of 15 s at 95° C., 30 s at 60° C. Gene expression levels were normalized to GAPDH. Q-PCR Sense/antisense primers used: Rat GAPDH, 5′-[…]-3′ (SEQ ID NO:20) and 5′-[…]-3′ (SEQ ID NO:21); Rat Ins1, 5′-GTCCTCTGGGAGCCCAAG-3′ (SEQ ID NO:6) and 5′-ACAGAGCCTCCACCAGG-3′ (SEQ ID NO:7); Rat Ins2, 5′-ATCCTCTGGGAGCCCCGC-3′ (SEQ ID NO:8) and 5′-AGAGAGCTTCCACCAAG-3′ (SEQ ID NO:9); Rat Pdia4, 5′-[…]-3′(SEQ ID NO:22) and 5′-[…]-3′ (SEQ ID NO:23); Rat Blos1, 5′-[…]-3′ (SEQ ID NO:18) and 5′-TGTCCAGTTCGATGCTCCG-3′ (SEQ ID NO:19).

IRE1α* = biological target: T1, IRE1α* (Homo sapiens, UniProt O75460); experiment: In vitro kinase activity assay (IRE1α kinase inhibition); assay type: biochemical; settings: IRE1α kinase inhibition; read-out: IC50 IRE1a
T1 construct: human IRE1α (residues 547-977, IRE1α*) was expressed in SF9 insect cells; His6 (N); made in house; host or cells: Sf9 insect cells (Bac-to-Bac baculovirus)
T1 sequence (O75460 547-977): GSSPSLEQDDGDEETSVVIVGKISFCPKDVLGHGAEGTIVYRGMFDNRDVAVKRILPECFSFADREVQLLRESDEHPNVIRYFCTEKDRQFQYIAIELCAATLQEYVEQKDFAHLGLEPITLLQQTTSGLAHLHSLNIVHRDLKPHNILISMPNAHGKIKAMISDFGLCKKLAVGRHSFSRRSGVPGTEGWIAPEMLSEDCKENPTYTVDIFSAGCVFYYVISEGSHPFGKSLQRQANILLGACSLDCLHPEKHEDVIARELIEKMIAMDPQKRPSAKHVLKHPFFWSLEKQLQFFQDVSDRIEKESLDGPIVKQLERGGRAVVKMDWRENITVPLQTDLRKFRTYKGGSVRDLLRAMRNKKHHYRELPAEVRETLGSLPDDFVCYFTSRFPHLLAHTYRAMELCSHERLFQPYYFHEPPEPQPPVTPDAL
Method: A construct containing the cytosolic kinase and RNase domains of human IRE1α (residues 547-977, IRE1α*) was expressed in SF9 insect cells by using the Bac-to-Bac baculovirus expression system (Invitrogen) with a His6 tag at the N-terminus and purified with a nickel-nitriloacetic acid (Qiagen) column. To generate dP-IRE1α*, we removed basal phosphorylation sites by incubating IRE1α* with λ-PPase (New England Biolabs) at a molar ratio of 5:1 (IRE1α*: λ-PPase) in 50 mM HEPES pH 7.5, 100 mM NaCl, 1 mM MnCl2, 2 mM dithiothreitol (DTT) and 0.01% Brij 35 detergent (v/v) overnight at 4° C. Dephosphorylation was verified through western blotting using a universal phospho-protein detection agent (biotin-pIMAGO (Tymora Analytical Operations, Cat. No.: FL800) and imaged using a streptavidin-linked fluorophore.
In Vitro Kinase Activity Assay
Inhibitors (initial concentration of 10 or 60 μM, three-fold serial dilutions) were incubated with IRE1α* in cleavage buffer (20 mM HEPES, 0.05% Triton X-100 (v/v), 50 mM KCl, 1 mM MgCl2, 1 mM DTT, pH 7.5) for 30 min, followed by incubation with 10 μCi [γ^32P] ATP (3,000 Ci mmol^−1, PerkinElmer) at 23° C. for 3 hours. Samples were then spotted onto glass fiber paper (Easytab-C Glass Fiber Filter Paper, Perkin Elmer) and washed in twice with 0.5% phosphoric acid and autoradiographed using a GE Typhoon FLA 9000 Imager. Blots were quantitated using ImageQuant software. The percent inhibition was quantified by setting the background (no kinase well) as 0 and standardizing to IRE1α* without compound treatment (IRE1α*+DMSO). Dose-response curves were fit using “one-site fit log IC50” parameter using GraphPad Prism analysis software.
Compound Characterization (IC50 IRE1α Kinase Inhibition)

XBP1 mRNA splicing = XBP1 mRNA splicing in INS-1 cells conditionally overexpressing IRE1α (Dox); assay type: cell-based, rat; settings: 3, 10 μM for 1 hour, then Dox (1 μg/mL) for 4 hours
Method: as §1, §2
(§3) RNA was extracted using Trizol (Invitrogen), DNaseI treated, and cDNA products encompassing the intron amplified by QuantiTect Reverse Transcription Kit (Qiagen). sense Primer rXBP Forward (5′-[…]-3′ (SEQ ID NO:12)) and antisense primer rXBP Reverse (5′-[…]-3′ (SEQ ID NO:13)) were used. PCR fragments were digested by PstI, resolved on 3% agarose gels, stained with EtBr, and quantified by densitometry.
as §3, with “XBP1 splicing for FIGS. 33A-33F: RNA” for “RNA”, “(Invitrogen),” for “(Invitrogen), DNaseI treated, and”, “(Qiagen). Sense” for “(Qiagen). sense”, “rXBP splicing” for “rXBP”

Structure (SMILES): Cc1cc(NS(=O)(=O)CCC(F)(F)F)c2ccccc2c1Oc1ncccc1-c1ccnc(N[C@@H]2CNC[C@@H](F)C2)n1 [LBC-410, 3,3,3-trifluoro-N-(4-((3-(2-(((3S,5S)-5-fluoropiperidin-3-yl)amino)pyrimidin-4-yl)pyridin-2-yl)oxy)-3-methylnaphthalen-1-yl)propane-1-sulfonamide]
- RIDD mRNA targets (Ins1, Ins2, Pdia4) [1]: block RIDD
- IC50 (IRE1α*): 3.4 nM
- % spliced XBP1 amplicons (XBP1 mRNA splicing): suppresses XBP1 splicing
